In patent US11236087B2, “Highly active pyrazolo-piperidine substituted indole-2-carboxamides active against the hepatitis B virus (HBV)” (AiCuris GmbH & Co. KG, priority 2017, dated 2022):

Key:
[1] = tested on: HBV; experiment: Determination of HBV DNA from the supernatants of HepAD38 cells (anti-HBV activity); assay type: cell-based, hepatitis B virus; settings: Hepatitis B virus, 144 h; HBV DNA in HepAD38 supernatant, day 6, qPCR; read-out: Cell Activity (EC50)
Method in brief: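 HepAD38 cells, tetracycline withdrawn to induce HBV, treated with serial half-log compound dilutions; on day 6 HBV DNA purified from filtered supernatant and quantified by real-time PCR against HBV plasmid standards; EC50 from relative copy numbers by non-linear regression, three experiments in triplicate.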

[2] = biological target: T1, HBV core protein (UniProt P03146); experiment: Biochemical capsid assembly assay (fluorescence quenching); set-up: species or system hepatitis B virus; settings: read-out: Assembly Activity (IC50); BODIPY-FL labelled core protein, 300 μM NaCl, read 6 min after start
T1 construct: fused on or other part: BODIPY-FL maleimide label on the C-terminal Cys150
Procedure: Biochemical Capsid Assembly Assay
The screening for assembly effector activity was done based on a fluorescence quenching assay published by Zlotnick et al. (2007). The C-terminal truncated core protein containing 149 amino acids of the N-terminal assembly domain fused to a unique cysteine residue at position 150 and was expressed in E. coli using the pET expression system (Merck Chemicals, Darmstadt). Purification of core dimer protein was performed using a sequence of size exclusion chromatography steps. In brief, the cell pellet from 1 L BL21 (DE3) Rosetta2 culture expressing the coding sequence of core protein cloned NdeI/XhoI into expression plasmid pET21b was treated for 1 h on ice with a native lysis buffer (Qproteome Bacterial Protein Prep Kit; Qiagen, Hilden). After a centrifugation step the supernatant was precipitated during 2 h stirring on ice with 0.23 g/ml of solid ammonium sulfate. Following further centrifugation the resulting pellet was resolved in buffer A (100 mM Tris, pH 7.5; 100 mM NaCl; 2 mM DTT) and was subsequently loaded onto a buffer A equilibrated CaptoCore 700 column (GE HealthCare, Frankfurt). The column flow through containing the assembled HBV capsid was dialyzed against buffer N (50 mM NaHCO3 pH 9.6; 5 mM DTT) before urea was added to a final concentration of 3M to dissociate the capsid into core dimers for 1.5 h on ice. The protein solution was then loaded onto a 1 L Sephacryl S300 column. After elution with buffer N core dimer containing fractions were identified by SDS-PAGE and subsequently pooled and dialyzed against 50 mM HEPES pH 7.5; […]. To improve the assembly capacity of the purified core dimers a second round of assembly and disassembly starting with the addition of 5 M NaCl and including the size exclusion chromatography steps described above was performed. From the last chromatography step core dimer containing fractions were pooled and stored in aliquots at concentrations between 1.5 to 2.0 mg/ml at −80° C.
Immediately before labelling the core protein was reduced by adding freshly prepared DTT in a final concentration of 20 mM. After 40 min incubation on ice storage buffer and DTT was removed using a Sephadex G-25 column (GE HealthCare, Frankfurt) and 50 mM HEPES, pH 7.5. For labelling 1.6 mg/ml core protein was incubated at 4° C. and darkness overnight with BODIPY-FL maleimide (Invitrogen, Karlsruhe) in a final concentration of 1 mM. After labelling the free dye was removed by an additional desalting step using a Sephadex G-25 column. Labelled core dimers were stored in aliquots at 4° C. In the dimeric state the fluorescence signal of the labelled core protein is high and is quenched during the assembly of the core dimers to high molecular capsid structures. The screening assay was performed in black 384 well microtiter plates in a total assay volume of 10 μl using 50 mM HEPES pH 7.5 and 1.0 to 2.0 μM labelled core protein. Each screening compound was added in 8 different concentrations using a 0.5 log-unit serial dilution starting at a final concentration of 100 μM, 31.6 μM or 10 μM, In any case the DMSO concentration over the entire microtiter plate was 0.5%. The assembly reaction was started by the injection of NaCl to a final concentration of […] which induces the assembly process to approximately 25% of the maximal quenched signal. 6 min after starting the reaction the fluorescence signal was measured using a Clariostar plate reader (BMG Labtech, Ortenberg) with an excitation of 477 nm and an emission of 525 nm. As 100% and 0% assembly control HEPES buffer containing 2.5 M and 0 M NaCl was used. Experiments were performed thrice in triplicates. EC50 values were calculated by non-linear regression analysis using the Graph Pad Prism 6 software (GraphPad Software, La Jolla, USA).

[3] = Cell viability assay (AlamarBlue) in HepAD38 cells; settings: human

T1 sequence (P03146 whole entry, looked up, the tested form may be a part): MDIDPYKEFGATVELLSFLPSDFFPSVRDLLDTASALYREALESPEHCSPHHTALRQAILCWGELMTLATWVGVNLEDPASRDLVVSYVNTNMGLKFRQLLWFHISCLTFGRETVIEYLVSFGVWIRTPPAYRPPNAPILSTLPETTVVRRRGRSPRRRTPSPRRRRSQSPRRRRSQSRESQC

Row | SMILES | EC50 [1] [µM] | IC50 [2] [µM] | CC50 at 6 days [3] [µM]
1 | CN(C(=O)c1n[nH]c2c1CN(C(=O)c1cc3ccccc3[nH]1)CC2)[C@@H]1CCCC[C@H]1O (racemic) [Example 192, N-[(±)-2-hydroxycyclohexyl]-5-(1H-indole-2-carbonyl)-N-methyl-1H,4H,5H,6H,7H-pyrazolo[4,3-c]pyridine-3-carboxamide] | < 1 | 5 to 10 | > 10
2 | CN(CCO)C(=O)c1n[nH]c2c1CN(C(=O)c1cc3c(C(F)F)cc(F)cc3[nH]1)CC2 [Example 3, 5-[4-(difluoromethyl)-6-fluoro-1H-indole-2-carbonyl]-N-(2-hydroxyethyl)-N-methyl-1H,4H,5H,6H,7H-pyrazolo[4,3-c]pyridine-3-carboxamide] | < 1 | < 5 | > 10
3 | CN(CCO)C(=O)c1n[nH]c2c1CN(C(=O)c1cc3c(C(F)F)cccc3[nH]1)CC2 [Example 4, 5-[4-(difluoromethyl)-1H-indole-2-carbonyl]-N-(2-hydroxyethyl)-N-methyl-1H,4H,5H,6H,7H-pyrazolo[4,3-c]pyridine-3-carboxamide] | < 1 | < 5 | > 10
4 | CN(CCO)C(=O)c1n[nH]c2c1CN(C(=O)c1cc3c(C(C)(F)F)cccc3[nH]1)CC2 [Example 5, 5-[4-(1,1-difluoroethyl)-1H-indole-2-carbonyl]-N-(2-hydroxyethyl)-N-methyl-1H,4H,5H,6H,7H-pyrazolo[4,3-c]pyridine-3-carboxamide] | < 100 | < 5 | > 32
5 | CN(CCO)C(=O)c1n[nH]c2c1CN(C(=O)c1cc3cc(F)c(Cl)cc3[nH]1)CC2 [Example 6, 5-(6-chloro-5-fluoro-1H-indole-2-carbonyl)-N-(2-hydroxyethyl)-N-methyl-1H,4H,5H,6H,7H-pyrazolo[4,3-c]pyridine-3-carboxamide] | < 1 | < 5 | > 10
6 | CN(CCO)C(=O)c1n[nH]c2c1CN(C(=O)c1cc3cc(F)c(F)cc3[nH]1)CC2 [Example 7, 5-(5,6-difluoro-1H-indole-2-carbonyl)-N-(2-hydroxyethyl)-N-methyl-1H,4H,5H,6H,7H-pyrazolo[4,3-c]pyridine-3-carboxamide] | < 1 | < 5 | > 10
7 | CN(CCO)C(=O)c1n[nH]c2c1CN(C(=O)c1cc3c(F)c(F)c(F)cc3[nH]1)CC2 [Example 8, N-(2-hydroxyethyl)-N-methyl-5-(4,5,6-trifluoro-1H-indole-2-carbonyl)-1H,4H,5H,6H,7H-pyrazolo[4,3-c]pyridine-3-carboxamide] | < 1 | < 5 | > 10
8 | CCc1ccc(F)c2[nH]c(C(=O)N3CCc4[nH]nc(C(=O)N(C)CCO)c4C3)cc12 [Example 9, 5-(4-ethyl-7-fluoro-1H-indole-2-carbonyl)-N-(2-hydroxyethyl)-N-methyl-1H,4H,5H,6H,7H-pyrazolo[4,3-c]pyridine-3-carboxamide] | < 1 | < 5 | > 10
9 | CCc1cc(F)cc2[nH]c(C(=O)N3CCc4[nH]nc(C(=O)N(C)CCO)c4C3)cc12 [Example 10, 5-(4-ethyl-6-fluoro-1H-indole-2-carbonyl)-N-(2-hydroxyethyl)-N-methyl-1H,4H,5H,6H,7H-pyrazolo[4,3-c]pyridine-3-carboxamide] | < 1 | < 5 | > 10
10 | COC(=O)C1CCN(C(=O)c2n[nH]c3c2CN(C(=O)c2cc4ccccc4[nH]2)CC3)CC1 [Example 132, methyl 1-[5-(1H-indole-2-carbonyl)-1H,4H,5H,6H,7H-pyrazolo[4,3-c]pyridine-3-carbonyl]piperidine-4-carboxylate] | – | < 5 | > 10
11 | CN(C(=O)c1n[nH]c2c1CN(C(=O)c1cc3ccccc3[nH]1)CC2)C(C)(C)CO [Example 143, N-(1-hydroxy-2-methylpropan-2-yl)-5-(1H-indole-2-carbonyl)-N-methyl-1H,4H,5H,6H,7H-pyrazolo[4,3-c]pyridine-3-carboxamide] | 1 to 25 | 5 to 10 | –
12 | O=C(c1cc2ccc(F)cc2[nH]1)N1CCc2n[nH]c(C3CCC3)c2C1 [Example 393, 2-{3-cyclobutyl-2H,4H,5H,6H,7H-pyrazolo[4,3-c]pyridine-5-carbonyl}-6-fluoro-1H-indole] | < 1 | – | > 10
13 | O=C(c1cc2cc(F)ccc2[nH]1)N1CCc2n[nH]c(C3CCC3)c2C1 [Example 394, 2-{3-cyclobutyl-2H,4H,5H,6H,7H-pyrazolo[4,3-c]pyridine-5-carbonyl}-5-fluoro-1H-indole] | < 1 | – | > 10
14 | CCOCC1(N(C)C(=O)c2[nH]nc3c2CN(C(=O)c2cc4ccc(F)cc4[nH]2)CC3)CC1 [Example 395, N-[1-(ethoxymethyl)cyclopropyl]-5-(6-fluoro-1H-indole-2-carbonyl)-N-methyl-2H,4H,5H,6H,7H-pyrazolo[4,3-c]pyridine-3-carboxamide] | < 1 | – | > 10
15 | O=C(c1cc2c(F)ccc(F)c2[nH]1)N1CCc2[nH]nc(C3CCC3)c2C1 [Example 396, 2-{3-cyclobutyl-1H,4H,5H,6H,7H-pyrazolo[4,3-c]pyridine-5-carbonyl}-4,7-difluoro-1H-indole] | < 1 | – | > 10
16 | O=C(c1cc2c(F)cccc2[nH]1)N1CCc2n[nH]c(C3CCC3)c2C1 [Example 397, 2-{3-cyclobutyl-2H,4H,5H,6H,7H-pyrazolo[4,3-c]pyridine-5-carbonyl}-4-fluoro-1H-indole] | < 1 | – | > 10
17 | Cc1noc(C2(N(C)C(=O)c3[nH]nc4c3CN(C(=O)c3cc5ccccc5[nH]3)CC4)CC2)n1 [Example 398, 5-(1H-indole-2-carbonyl)-N-methyl-N-[1-(3-methyl-1,2,4-oxadiazol-5-yl)cyclopropyl]-2H,4H,5H,6H,7H-pyrazolo[4,3-c]pyridine-3-carboxamide] | < 1 | – | > 10
18 | CC(F)(F)c1cc(F)cc2[nH]c(C(=O)N3CCc4n[nH]c(C5CCC5)c4C3)cc12 [Example 399, 2-{3-cyclobutyl-2H,4H,5H,6H,7H-pyrazolo[4,3-c]pyridine-5-carbonyl}-4-(1,1-difluoroethyl)-6-fluoro-1H-indole] | < 1 | – | > 10
19 | O=C(c1cc2c(C(F)F)cc(F)cc2[nH]1)N1CCc2n[nH]c(C3CCC3)c2C1 [Example 400, 2-{3-cyclobutyl-2H,4H,5H,6H,7H-pyrazolo[4,3-c]pyridine-5-carbonyl}-4-(difluoromethyl)-6-fluoro-1H-indole] | < 1 | – | > 10
20 | O=C(c1cc2ccccc2[nH]1)N1CCc2n[nH]c(C(=O)N3CC(F)(F)CC34CC4)c2C1 [Example 401, 2-(3-{6,6-difluoro-4-azaspiro[2.4]heptane-4-carbonyl}-2H,4H,5H,6H,7H-pyrazolo[4,3-c]pyridine-5-carbonyl)-1H-indole] | < 1 | – | > 10
21 | CN(C(=O)c1[nH]nc2c1CN(C(=O)c1cc3ccccc3[nH]1)CC2)C1(c2ccno2)CC1 [Example 402, 5-(1H-indole-2-carbonyl)-N-methyl-N-[1-(1,2-oxazol-5-yl)cyclopropyl]-2H,4H,5H,6H,7H-pyrazolo[4,3-c]pyridine-3-carboxamide] | < 1 | – | > 10
